Reference: PubChem BioAssay AID463074 (Broad Institute, 2010)
The source made the active and inactive calls.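 Rule for the calls: active = AC50 no more than tenfold above the top dose tested, or full inhibition at every dose with a flat fit (cut at about 19 µM in these data); inconclusive = flat curve fit with inhibition between 30% and 70%, or poor fit; inactive = AC50 more than tenfold above the top dose tested.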

System: HMLE_sh_eGFP viability, CellTiter-Glo luminescence, 72 h
Test: cytotoxicity in HMLE control line with eGFP shRNA, dose response, counter-screen for HMLE_sh_ECad selective toxicity project, cell-based, HMLE_sh_eGFP, luminescence (AID 463074);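 note: counterscreen control line to flag general toxicity for the HMLE_sh_ECad screen; potency for loss of viability as luminescence drops below DMSO wells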

SMILES | AC50
COC(=O)C1=C(C)N(Cc2ccccc2)C(=NCc2cccc(Cl)c2)N[C@H]1c1cccc(F)c1 | 3.62 µM
CN(C)CCCNc1ccc(-c2cc(Nc3cccc(Cl)c3)ncn2)cn1 | 4.8 µM
O=C(CSc1nc2nc(-c3cccs3)cc(C(F)(F)F)c2c(=O)[nH]1)Nc1c(F)c(F)c(F)c(F)c1F | 3.43 µM
COc1ccc(NC(=O)c2cc3ccccc3cc2O)cc1 | 8.3 µM
O=C(Nc1nnc(-c2ccc(Cl)cc2)o1)c1nc2ccccc2s1 | 5.29 µM
CCOC(=O)c1c(NC(=O)CSc2nc3ccc(C)cc3[nH]2)sc2c1CC(C)(C)NC2(C)C | 6.64 µM
COC(=O)C1=C(C)N(Cc2ccccc2)C(=NCCc2c[nH]c3ccccc23)N[C@H]1c1cccc(F)c1 | 7.06 µM
COc1cc(C2NCC(c3ccc(Cl)cc3Cl)c3c2[nH]c2ccccc32)cc(OC)c1OC (stereo not drawn) | 18.7 µM
Cc1ccc(OCC(O)Cn2c3ccccc3c3ccccc32)cc1 (stereo not drawn) | 6.78 µM
COC(=O)c1c(NC(=O)COc2ccc(Cl)cc2Cl)sc2c1CC(C)(C)NC2(C)C | 6.62 µM
Nc1cc(Cl)ccc1Oc1ccc2ccccc2c1 | > 10 µM (inactive)
Cc1ccc(-c2cc(-c3ccccc3)nc(NN)n2)cc1 | 4.19 µM
O=C(N/N=C(\Cc1ncc[nH]1)c1ccccc1)c1ccncc1 | 3.85 µM
O=C1C=C(c2cccs2)C[C@H](c2ccccc2)[C@H]1n1nnc([N+](=O)[O-])n1 | 0.274 µM
CCC1(C)Cc2c(sc3nc(SC)n(Cc4ccccc4)c(=O)c23)CO1 (stereo not drawn) | 2.77 µM
CN(C)CCNc1nc2sc3c(c2c(=O)n1CCc1ccccc1)CCCCC3 | 7.1 µM
Cc1ccc(COc2ccccc2-c2cc(C(=O)N/N=C/c3cccnc3)[nH]n2)cc1 | 12.6 µM
Oc1ccc(-c2cnc(-c3ccc(O)cc3)nc2)cc1 | 0.304 µM
Cc1ccc(C(=O)NC2c3ccccc3-c3ccccc32)cc1 | 0.816 µM
COc1ccc(-c2csc3nc(-c4ccccc4F)oc(=O)c23)cc1OC | 3.86 µM
C[C@H](CO)N1C[C@H](C)[C@@H](CN(C)S(=O)(=O)c2ccc(F)cc2)Oc2ccc(NC(=O)Nc3ccc(C(F)(F)F)cc3)cc2C1=O | 17.1 µM
CC1(C)Cc2c(c(N3CCOCC3)nc3sc4c(NN)ncnc4c23)CS1 | 11.4 µM
Cc1c(O)cccc1C(=O)N[C@@H](CSc1ccccc1)[C@H](O)CN1C[C@H]2CCCC[C@H]2C[C@H]1C(=O)NC(C)(C)C | 7.33 µM
CCCOc1c(Cl)cc(C(=O)Nc2ccc3c(c2)OCO3)cc1OCC | 5.39 µM
S=c1[nH]nc(-c2cc(-c3ccccc3)n[nH]2)n1/N=C/C(Br)=C/c1ccccc1 | 1.2 µM
CN[C@H]1CCc2cc(OC)c(OC)c(OC)c2-c2ccc(N(C)CC(OC)OC)c(=O)cc21 | 2.15 µM

SMILES | AC50
O=S(=O)(c1ccc(Cl)cc1)N1CCN(Cc2ccc(O)c3ncccc23)CC1 | 6.21 µM
Cc1cc(C)c2c(c1)/C(=C/C(=O)c1ccc(Br)s1)C(=O)N2 | 5.47 µM
O=C(/C=C/c1ccc2c(c1)OCO2)NCCSCc1c(Cl)cccc1Cl | 2 µM
CC(C)CN=C(NS(=O)(=O)c1ccccc1)C(Cl)(Cl)Cl | 3.27 µM
Cn1c(/C(C#N)=C(\O)COc2ccc3ccccc3c2)nc2ccccc21 | 0.359 µM
O=C1C=CC(=O)N1c1ccc(OC(F)F)cc1 | 11.9 µM
Cn1cccc1/C=C1/C(=O)NC(=S)N(Cc2ccc(F)cc2)C1=O | 1.7 µM
COc1ccc(C)cc1NS(=O)(=O)c1ccc(NC(=O)CN(c2cc([N+](=O)[O-])ccc2C)S(C)(=O)=O)cc1 | 3.8 µM
COc1cccc(-c2sc3ccc(OC)cc3c2C#CCC(C)O)c1 (stereo not drawn) | 5.4 µM
COc1ccc(C(=O)/C=C/c2cc(OC)c(O)c(OC)c2)c(F)c1 | 12.3 µM
CC1S/C(=N/N=C/c2cccc([N+](=O)[O-])c2)NC1=O (stereo not drawn) | 3.48 µM
O=C(/C=C/c1ccco1)NCC1OCCc2ccccc21 (stereo not drawn) | > 19.5 µM (inactive)
Cc1cccc(-n2cc(-c3ccccc3)c3c(N4CCOCC4)ncnc32)c1 | 4.59 µM
CC1CCCCN1c1cc(C#N)c(C#N)cc1[N+](=O)[O-] (stereo not drawn) | 1.77 µM
O=C(N/N=C/c1cc(Cl)cc([N+](=O)[O-])c1O)NC12CC3CC(CC(C3)C1)C2 | 4.59 µM
CCCC(=O)NC(c1ccco1)c1cc([N+](=O)[O-])c2cccnc2c1O (stereo not drawn) | 7.35 µM
O=C(Nc1nc(-c2cc(Cl)sc2Cl)cs1)c1cccs1 | 2.42 µM
O=C(c1cnc2ccc3ccccc3c2c1)c1cc(F)ccc1O | 0.86 µM
NCCNc1ccc(C(=O)N2c3ccccc3Sc3ccccc32)cc1[N+](=O)[O-] | 8.03 µM
COc1ccc2c(c1)[nH]c1c(=O)n(/N=C/C3C(C)C=C(C)CC3C)c(=O)[nH]c12 (stereo not drawn) | > 19.5 µM (inactive)
O=C(NCCC1=CCCCC1)c1coc(=O)c(Br)c1 | 11.7 µM
CC(C)(C)c1ccc(Oc2ccc(NC(=O)c3cccs3)cn2)cc1 | 2.88 µM
O=C(CN1CCN(c2ccc(O)cc2)CC1)Nc1ccc(SC(F)F)cc1 | 6.17 µM
OC(CN1CCCCC1)Cn1c2ccc(Cl)cc2c2cc(Cl)ccc21 (stereo not drawn) | 7.56 µM
O=C(Nc1cccc(S(=O)(=O)Nc2ccc(Cl)cc2)c1)c1cc2c(s1)CCCC2 | 2.79 µM
O=C(NC1CCCCC1)C(c1cccnc1)N(C(=O)CCl)c1ccc(F)cc1 (stereo not drawn) | 3.47 µM

SMILES | AC50
CC(C)n1cnc2c(NCc3ccccc3)cc(Cc3ccc(F)cc3)cc21 | 4.67 µM
Cc1ccc(-c2nc(Nc3cccc(O)c3)c3ccccc3n2)cc1 | 7.23 µM
CCN1CCN(Cc2ccc(NC(=O)c3ccc(C)c(NC(=O)c4cc(-c5ccc(Br)cc5)n[nH]4)c3)cc2C(F)(F)F)CC1 | 11.6 µM
COc1ccc(-c2sc3ccc(OC)cc3c2C#CCCO)cc1 | 7.27 µM
C#CCOCCOCCOCCNc1nc(N2CCN(C(=O)CCCCCCCCCCNC(=O)Cn3cc(C[C@@H](C)O)nn3)CC2)nc(N2CCN(C(=O)CCCCCCCCCCNC(=O)[C@@H]([C@H](C)O)n3cc(C)nn3)CC2)n1 | 4.83 µM
COc1ccc(-c2csc(NC(=S)NC(=O)/C=C/c3ccco3)n2)cc1Br | 1.98 µM
Cc1ccc(NC(=S)Nc2cccc3cnccc23)cc1C | > 19.5 µM (inactive)
O=c1[nH]c(CN2CC=C(c3ccccc3)CC2)nc2scc(-c3ccccc3)c12 | 5.19 µM
CC(=O)Nc1sc(C)c(C)c1C(=O)OCC(=O)N(CC(C)C)c1c(N)n(Cc2ccccc2)c(=O)[nH]c1=O | 2.85 µM
Cc1cc(C)nc(SCc2ccc(C(=O)NNC(=O)Nc3cccc(Cl)c3)cc2)n1 | 3.92 µM
O=C(Nc1ccc2c(c1)OCO2)c1ccc(COc2ccc3c(c2)CCC3)o1 | 6.25 µM
Clc1ccc(CO/N=C/c2c(-c3ccccc3)nc3n2CCS3)c(Cl)c1 | 4.62 µM
CCN(CC)CCCNC(=S)N1CCN(c2nc(-c3ccc(F)cc3)cs2)CC1 | 2.44 µM
Cc1ccc(S(=O)(=O)Nc2ccc(NC(=O)Nc3cccc(C(F)(F)F)c3)cc2)cc1 | 2.51 µM
Cc1cc(-c2ccccc2)n(-c2cc(N/N=C/c3ccccc3O)ncn2)n1 | 0.669 µM
COC(=O)c1sc(-c2ccc(C(C)(C)C)cc2)cc1NC(=O)/C=C/C(=O)O | 4.28 µM
Cc1c(CCOC(=O)C2C3CC4CC(C3)CC2C4)sc[n+]1CC(=O)c1ccc(Br)cc1 (stereo not drawn) | 2.44 µM
CN1CCN(c2ccc([N+](=O)[O-])c(NCc3ccco3)c2)CC1 | 12.9 µM
O=C(O)c1cc(O)ccc1NC(=O)C(c1ccccc1)c1ccccc1 | > 19.5 µM (inactive)
N#CC1=C(SCC(=O)c2ccc(Cl)cc2)NC2=C(C(=O)CCC2)C1c1ccco1 (stereo not drawn) | 3.57 µM
O=C1NC(=O)N(CCc2ccc(F)cc2)C(=O)/C1=C/C=C/c1ccccc1 | 3.91 µM
COc1ccc(C(=O)NC(=S)Nc2ccccc2N2CCCCC2)cc1[N+](=O)[O-] | 0.574 µM
Cn1ncc2c(Nc3cccc(Cl)c3)nc(Nc3cccc(Cl)c3)nc21 | 3.71 µM
CCc1ccc2c(c1)C1(C(=O)N2)N2CCCC2C(C(=O)c2ccc3ccccc3c2)C12C(=O)Nc1ccccc12 (stereo not drawn) | 3.69 µM
COc1ccc2cc(C(=O)N/N=C/c3sc4ccccc4c3O)ccc2c1 | 1.8 µM
COc1ccc(NC(=O)c2cc3ccc(O)cc3o/c2=N\O)cc1 | 9.36 µM

SMILES | AC50
COc1ccc2sc(-c3ccc(SC)cc3)c(-c3ccc(O)cc3)c2c1 | 2.42 µM
O=c1[nH]c(=O)n(CCC2=CCCCC2)c(O)c1/C=N/Nc1ccccc1 | 3.76 µM
O=C(Nc1ccc(S(=O)(=O)N2CCOCC2)cc1)c1ccc([N+](=O)[O-])o1 | 5.38 µM
O=C1C=C(c2ccc(Cl)c(C(F)(F)F)c2)C[C@@H](c2ccc(Cl)cc2)C1 | 3.52 µM
O=C(Nc1nccs1)c1ccc(COc2ccccc2Br)o1 | 4.84 µM
CC(/C=N/n1c(C2CCCCC2)n[nH]c1=S)=C\c1ccccc1 | 4.88 µM
Nc1[nH]n2c(=O)cc(-c3ccccc3)nc2c1N=Nc1ccccc1 | 13.3 µM
Cc1cc(-c2csc3nc[nH]c(=S)c23)cc(C)c1C | 18.8 µM
CCOCCCNC(=O)/C(C#N)=C/c1ccc([N+](=O)[O-])o1 | 8.21 µM
CCCCCCC[C@@H](C/C=C/CCC(=O)N(C)C/C(=C/Cl)C/C(=C\C(=O)N1CC(OC)=CC1=O)OC)OC | 5.38 µM
CC(C)(C)OC(=O)NCc1ccc(NC(=O)c2nc[nH]c2C(=O)NCCCCNC(=O)c2[nH]cnc2C(=O)Nc2ccc(CNC(=O)OC(C)(C)C)cc2)cc1 | 2.15 µM
CC(C)n1cnc2c(NCc3ccccc3)cc(N[C@H](C)CO)cc21 | 7.36 µM
CCC(=O)Nc1nc(C)c(-c2csc(Nc3cccc(O)c3)n2)s1 | 0.384 µM
C[C@@H]1CCC(=O)N(CC[C@H](Sc2ccc(Br)cc2)c2ccccc2)CC1 | 5.66 µM
COc1cc2sc(-c3ccccc3OC)c(-c3ccc(O)cc3)c2cc1OC | 5.22 µM
CN(CC(=O)Nc1ccccc1Cl)C(=O)c1cccc(-n2cccc2)c1 | > 19.5 µM (inactive)
Cc1c(C(=O)c2cccc3ccccc23)c2cccc3c2n1[C@H](CN1CCOCC1)CO3 | 3.66 µM
CCOC(=O)c1sc(NC(=O)c2cc(-c3ccccc3C)nc3ccccc23)c(C#N)c1C | 5.17 µM
O=C(NC(=S)Nc1ccc(N2CCCCC2)c(Cl)c1)c1cccs1 | 8.62 µM
Cc1nc(Nc2ccc(Cl)cc2Cl)sc1C(=O)Nc1ccccc1 | 11.5 µM
O=[N+]([O-])c1cccc(-c2csc(Nc3ccccc3)n2)c1 | 3.88 µM
O=C(N/N=C/c1cc(Cl)ccc1O)c1ccc(Br)cc1 | 4.41 µM
COc1ccc(/C=N/OCC(=O)N2CC3(C)CC2CC(C)(C)C3)cc1 (stereo not drawn) | 14.3 µM
CCc1cc2cccc(C)c2nc1SCC(=O)c1ccc(NC(C)=O)cc1 | 4.62 µM
CC1(C)CCC[C@]2(C)[C@H]3Cc4cc(O)ccc4O[C@]3(C)CC[C@@H]12 | 6.89 µM
